Experimental findings from ChEMBL document CHEMBL1201862, “PubChem BioAssay data set” (2004) are described below.

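Cultured in 96-well plates, cells were exposed to test compound for 48 hours across five concentrations. At the GI50, growth is halved.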 Active and inactive are the calls of the source. Rule as the data show it: active = GI50 up to about 1.1 µM and inactive = higher.

Among the test systems are SNB-19; UO-31; Malme-3M; A549; A498; HT-29; LOX IMVI; OVCAR-4; EKVX; SK-MEL-28; SK-OV-3; ACHN; SF-539; SNB-75; OVCAR-3.
Common to all, as to experiment: growth of human tumour cells (NCI), 48 h

With `O=C(N/N=C/c1cc(Br)ccc1O)N/N=C/c1cc(Br)ccc1O`, the GI50 in the experiment with SNB-19 was 5.31 µM (inactive); in the experiment with UO-31 it was 0.64 µM (active); with Malme-3M, 3.64 µM (inactive); in the experiment on A549 it was 1.56 µM (inactive); in the experiment on A498, > 100 µM (inactive); in the experiment on HT-29, 5.97 µM (inactive). The GI50 in the experiment with LOX IMVI was 5.85 µM (inactive); in the experiment on OVCAR-4, 3.72 µM (inactive); in the experiment with EKVX, 4.93 µM (inactive); in the experiment with SK-MEL-28, > 100 µM (inactive); with SK-OV-3 it was 69 µM (inactive); with ACHN it was 4.6 µM (inactive). In addition, in the experiment on SF-539, the GI50 was 0.877 µM (active).

`CSc1ccc(Cc2cc(C(C)(C)C)cc(C(C)(C)C)c2O)cc1`: the GI50 with SNB-19 was 16.3 µM (inactive); in the experiment with UO-31, 17 µM (inactive); with Malme-3M, 15.2 µM (inactive); in the experiment on A549 it was 13.6 µM (inactive); in the experiment with A498, 15.6 µM (inactive); in the experiment with HT-29 it was 13.8 µM (inactive). Also, the GI50 is 10.4 µM (inactive) in the experiment with LOX IMVI; 15.4 µM (inactive) with OVCAR-4; 18.2 µM (inactive) with EKVX; 16.5 µM (inactive) with SK-MEL-28; 27 µM (inactive) in the experiment on SK-OV-3; 15 µM (inactive) in the experiment with ACHN. The GI50 in the experiment with SF-539 was 17.3 µM (inactive); in the experiment on SNB-75 it was 16 µM (inactive).

On to `Cc1ccc(S(=O)(=O)N/N=C(\CCN2CCCC2)CC(c2ccccc2)c2c(O)c3ccccc3oc2=O)cc1` (centres undefined), for which the GI50 in the experiment with SNB-19, in the experiment on UO-31, in the experiment with Malme-3M, in the experiment with A549, with A498 and in the experiment with HT-29 was > 100 µM (inactive) in each case. In addition, the GI50 with LOX IMVI, with OVCAR-4, in the experiment with OVCAR-3, with EKVX, with SK-OV-3 and with ACHN was > 100 µM (inactive) in each case. The GI50 with SF-539 and in the experiment with SNB-75 was > 100 µM (inactive) throughout.

On to `CC(C)(C)C1=Cc2cc3cc(C(C)(C)C)[nH]c(=O)c3cc2S(=O)(=O)N1`, for which the GI50 with SNB-19 is 36.4 µM (inactive); with UO-31, 17.1 µM (inactive); in the experiment on Malme-3M, 22.4 µM (inactive); in the experiment on A549, 23.2 µM (inactive); with A498, 53.2 µM (inactive); with HT-29, 22.9 µM (inactive). The GI50 with OVCAR-4 was 24.6 µM (inactive); in the experiment with OVCAR-3, 19 µM (inactive); in the experiment on EKVX it was 17.3 µM (inactive); with SK-MEL-28 it was 31.3 µM (inactive); with SK-OV-3, 31.2 µM (inactive); in the experiment with ACHN, 30.3 µM (inactive). Moreover, the GI50 with SNB-75 was 37.8 µM (inactive).

Turning to `O=C1c2ccccc2OP(=O)(OCC(F)(F)F)OC1(C(F)(F)F)C(F)(F)F` (centres undefined), the GI50 is > 100 µM (inactive) with SNB-19; 45.3 µM (inactive) in the experiment on UO-31; > 100 µM (inactive) in the experiment with A549; > 100 µM (inactive) with A498; > 100 µM (inactive) in the experiment on HT-29; > 100 µM (inactive) in the experiment on LOX IMVI. Also, the GI50 in the experiment with OVCAR-4, in the experiment with EKVX, in the experiment with SK-MEL-28, in the experiment with SK-OV-3, in the experiment on ACHN and in the experiment on SF-539 was > 100 µM (inactive) in each case. Further, the GI50 in the experiment with SNB-75 was > 100 µM (inactive).

With `CCOC(=O)/C(C(=O)c1ccccc1)=C1\N[C@H](C(=O)OCC)CS1`, the GI50 in the experiment with SNB-19, with UO-31, with Malme-3M, in the experiment on A549, in the experiment on HT-29 and in the experiment on LOX IMVI was > 100 µM (inactive) in each case. The GI50 in the experiment on OVCAR-4 is > 100 µM (inactive); in the experiment with OVCAR-3, > 100 µM (inactive); in the experiment with EKVX it was > 100 µM (inactive); with SK-MEL-28, > 100 µM (inactive); in the experiment on ACHN, > 100 µM (inactive); with SF-539 it was 10 µM (inactive). For the same compound, the GI50 in the experiment with SNB-75 was > 100 µM (inactive).

Regarding `CC1CC(c2ccc(Cl)cc2)=Nc2ccccc2S1` (centres undefined), the GI50 with SNB-19, in the experiment on UO-31, in the experiment on Malme-3M, with A549, in the experiment on A498 and in the experiment on HT-29 was > 100 µM (inactive) throughout. The GI50 with OVCAR-4, in the experiment with OVCAR-3, in the experiment on EKVX, in the experiment with SK-MEL-28, with SK-OV-3 and in the experiment on ACHN was > 100 µM (inactive) in each case. Besides, the GI50 in the experiment with SF-539 and in the experiment on SNB-75 was > 100 µM (inactive) throughout.

With `O=C(CCC(=O)Nc1ccc(Cl)cc1)CC(=O)c1ccc(F)cc1`, the GI50 in the experiment with SNB-19, with UO-31, with Malme-3M, with A549, in the experiment with HT-29 and in the experiment on LOX IMVI was > 100 µM (inactive) throughout. Further, the GI50 with OVCAR-4, in the experiment on OVCAR-3, in the experiment on SK-MEL-28, with SK-OV-3, with ACHN and in the experiment with SF-539 was > 100 µM (inactive) throughout. In addition, the GI50 in the experiment on SNB-75 was > 100 µM (inactive).

For `N#Cc1ccc(C(C2C(=O)NC(=O)NC2=O)C2C(=O)NC(=O)NC2=O)cc1`, the GI50 in the experiment with SNB-19, in the experiment on UO-31, in the experiment on Malme-3M, in the experiment with A549, with HT-29 and with LOX IMVI was > 100 µM (inactive) each time. The GI50 in the experiment on OVCAR-4, in the experiment on OVCAR-3, with EKVX, in the experiment on SK-MEL-28, in the experiment with SK-OV-3 and in the experiment with ACHN was > 100 µM (inactive) each time. Besides, the GI50 in the experiment on SF-539 is > 100 µM (inactive).

As to `O=C(O)CCc1nn2c(nc1=O)sc1ccc3ccccc3c12`, the GI50 in the experiment on SNB-19, with UO-31, in the experiment with Malme-3M, in the experiment on A549, in the experiment with HT-29 and with LOX IMVI was > 100 µM (inactive) each time. The GI50 in the experiment on OVCAR-4, in the experiment with OVCAR-3, in the experiment on EKVX, with SK-MEL-28, with SK-OV-3 and in the experiment on ACHN was > 100 µM (inactive) in each case. The GI50 in the experiment on SF-539 and with SNB-75 was > 100 µM (inactive) in each case.

In the case of `CCOC(=O)NC(=O)c1cn(C2OC(COC(=O)CCCCCCCCC(=O)OCC3OC(n4cc(C(=O)NC(=O)OCC)c(=O)[nH]c4=O)C(O)C3O)C(O)C2O)c(=O)[nH]c1=O` (centres undefined), the GI50 in the experiment with SNB-19, with UO-31, in the experiment with Malme-3M, in the experiment on A549, in the experiment with A498 and in the experiment on HT-29 was > 100 µM (inactive) throughout. Moreover, the GI50 in the experiment with LOX IMVI, in the experiment with OVCAR-4, in the experiment with OVCAR-3, with EKVX, in the experiment on SK-MEL-28 and in the experiment on ACHN was > 100 µM (inactive) each time. Moreover, the GI50 with SF-539 and in the experiment with SNB-75 was > 100 µM (inactive) in each case.

As to `COC1OC(OC)C2C(c3c(C)cc(C)cc3C)=NOC12` (centres undefined), the GI50 with SNB-19, in the experiment with UO-31, in the experiment on Malme-3M, in the experiment on A549, in the experiment with HT-29 and in the experiment on LOX IMVI was > 100 µM (inactive) each time. Further, the GI50 in the experiment on OVCAR-4, in the experiment with OVCAR-3, in the experiment with EKVX, with SK-MEL-28, with SK-OV-3 and in the experiment with ACHN was > 100 µM (inactive) each time. Besides, the GI50 in the experiment on SNB-75 is > 100 µM (inactive).

Consider `CCC/C(=N/NC(=O)C(N)=O)C(CC)C(=O)CCC(=O)N(Cc1ccccc1)Cc1ccccc1` (centres undefined), for which the GI50 in the experiment on SNB-19, with UO-31, with Malme-3M, in the experiment on A549, in the experiment with A498 and in the experiment on HT-29 was > 100 µM (inactive) in each case. Further, the GI50 in the experiment on LOX IMVI, in the experiment on OVCAR-3, in the experiment with EKVX, in the experiment on SK-MEL-28, in the experiment with SK-OV-3 and with ACHN was > 100 µM (inactive) each time. The GI50 with SF-539 and in the experiment with SNB-75 was > 100 µM (inactive) in each case.

For the compound `Cc1cccc2c(=O)cc(-c3ccccc3)[nH]c12`, the GI50 in the experiment on SNB-19 is 7.94 µM (inactive); in the experiment with UO-31, 15.6 µM (inactive); in the experiment with Malme-3M it was 4.09 µM (inactive); with A549, 6.11 µM (inactive); in the experiment with A498, 5.3 µM (inactive); in the experiment with HT-29, 3.1 µM (inactive). Moreover, the GI50 in the experiment on LOX IMVI was 4.58 µM (inactive); in the experiment on OVCAR-4, 4.09 µM (inactive); with OVCAR-3 it was 3.31 µM (inactive); with EKVX it was 46.2 µM (inactive); in the experiment with SK-MEL-28, > 100 µM (inactive); in the experiment with ACHN, 12.2 µM (inactive). Moreover, the GI50 is 5.69 µM (inactive) with SF-539 and 1.73 µM (inactive) in the experiment with SNB-75.
